Values quoted from earlier work as cited in patent US20140343076A1, “PHARMACEUTICAL COMPOSITIONS OF LURASIDONE” (Cadila Healthcare Limited, priority 2013, published 2014).
Where a name gives a salt, the structure may show the parent alone.

solubility in water: less than several
Compound: O=C1[C@@H]2[C@H]3CC[C@H](C3)[C@@H]2C(=O)N1C[C@@H]1CCCC[C@H]1CN1CCN(c2nsc3ccccc23)CC1 [lurasidone, N-[4-[4-(1,2-benzisothiazol-3-yl)-1-piperazinyl]-(2R,3R)-2,3-tetramethylene-butyl]-(1′R,2′S,3′R,4′S)-2,3-bicyclo[2,2,1]heptanedicarboxyimide hydrochloride]
